Measurements: PubChem BioAssay (NCI)
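In this assay, cells in 96-well plates receive the compound at five concentrations for 48 hours. Endpoints are linearly interpolated between the surrounding concentrations. Abbreviation: GI50, concentration required for 50% inhibition of growth. The concentration for full growth arrest is given as TGI.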

Experiments:
Test in all cases: NCI tumour cell line growth inhibition, 48 h
HOP-92 NSCLC = test system: HOP-92 NSCLC
A498 renal = test system: A498 renal
CAKI-1 renal = test system: CAKI-1 renal
SK-MEL-2 melanoma = test system: SK-MEL-2 melanoma
HS 578T breast = test system: HS 578T breast
HT29 colon = test system: HT29 colon
EKVX NSCLC = test system: EKVX NSCLC
IGROV1 ovarian = test system: IGROV1 ovarian
HCT-15 colon = test system: HCT-15 colon
HCC-2998 colon = test system: HCC-2998 colon

Row | SMILES | GI50 (HOP-92 NSCLC) [nM] | TGI (HOP-92 NSCLC) [µM] | GI50 (A498 renal) [µM] | TGI (A498 renal) [µM] | GI50 (CAKI-1 renal) [µM] | TGI (CAKI-1 renal) [µM] | GI50 (SK-MEL-2 melanoma) [µM] | TGI (SK-MEL-2 melanoma) [µM] | GI50 (HS 578T breast) [µM] | TGI (HS 578T breast) [µM] | GI50 (HT29 colon) [nM] | TGI (HT29 colon) [µM] | GI50 (EKVX NSCLC) [µM] | TGI (EKVX NSCLC) [µM] | GI50 (IGROV1 ovarian) [µM] | TGI (IGROV1 ovarian) [µM] | GI50 (HCT-15 colon) [µM] | TGI (HCT-15 colon) [µM] | GI50 (HCC-2998 colon) [µM] | TGI (HCC-2998 colon) [µM]
1 | CNCc1cccc2c1OCCOCCOCCNS(=O)(=O)c1ccc(cc1)-c1cnc(N)c(n1)C(=O)N2 | 3050 | 14.7 | 1.36 | 3.79 | 0.46 | 1.86 | 1.76 | 4.41 | 0.477 | 3.05 | 1310 | 3.76 | 2.83 | 11.2 | 0.513 | 3.89 | 4.86 | 18.9 | 1.79 | 4.69
2 | O=C(CC1(O)C(=O)Nc2c(Cl)cc(Cl)cc21)c1cccc([N+](=O)[O-])c1 (stereo not given) |  | 80.9 |  | 66.8 |  | > 93.2 |  | > 86.3 |  | 94.9 |  | > 100 |  | > 100 |  | 55.8 |  | > 100 |  | > 70.4
3 | O=C1NC(c2ccccc2Cl)Nc2ccccc21 (stereo not given) |  | > 100 |  | > 100 |  | 91.8 |  | 48.7 |  | 54.7 |  | > 100 |  | > 100 |  | > 100 |  | > 100 |  | > 100
4 | O=c1c(Oc2ccc(F)cc2F)cc2cnc(NC3CCOCC3)nc2n1C1CC1 | 172 | 10.6 | 2.72 | > 25 | > 25 | > 25 | > 25 | > 25 | > 16.9 | > 25 | > 25000 | > 25 |  |  | > 25 | > 25 | > 25 | > 25 | > 25 | > 25
5 | COc1ccccc1CNCCCN1C(=O)c2ccc3c4c(ccc(c24)C1=O)C(=O)N(CCCNCc1ccccc1OC)C3=O | 243 | 0.847 | 1.21 | 2.5 | 0.233 | 0.725 | 0.203 | 0.427 | 0.59 | 2.13 | 136 | 0.425 | 0.168 | 0.343 | 0.148 | 0.399 | 0.191 | 0.465 | 0.166 | 0.328
6 | OCc1ccc(N2CCc3ccc(F)cc3C2)cc1Cl | 146 | 0.889 | 0.0173 | 0.0751 | 1.01 | 9.62 | 0.226 | 8.79 | 15.8 | 48.4 | 229 | 6.61 |  |  | 0.0202 | 0.124 | 2.82 | 18.8 | 1.7 | 14.4
7 | OC[C@H]1C[C@](O)(c2ccc(F)cc2)[C@@H](c2ccc(F)cc2)O1 | 66000 | > 100 | > 100 | > 100 | > 100 | > 100 |  |  | 44.2 | > 100 | > 100000 | > 100 | > 100 | > 100 | 58.3 | > 100 | > 100 | > 100 | > 100 | > 100
8 | CCN1CCN(CC(=O)Nc2nc3ccc(NCc4ccc(Br)cc4)cc3s2)CC1 | 1210 | 3.04 | 1.76 | 3.46 | 1.84 | 4.55 | 1.95 | 3.63 | 1.77 | 4.81 |  |  | 3.02 | > 100 |  |  |  |  |  | 
9 | COc1ccc(Cn2c(Br)c3c(c2-c2cc(OC)c(OC)c(OC)c2)CCc2sc(N)nc2-3)cc1 | 477 | 2.88 | 0.267 | 2.36 | 0.765 | > 28.2 | 0.72 | 5.41 | 2.08 | > 100 | 731 | 5.48 |  |  | 1.28 | 9.19 | 1.05 | > 48.7 | 2.93 | 12.3
10 | CC[C@]12C=CCN3CC[C@@]4(c5ccc(OC)cc5N(C)[C@H]4[C@@](O)(C(=O)OC)[C@@H]1OC(=O)CCCN1CCN(CCCC(=O)O[C@@H]4[C@]5(CC)C=CCN6CC[C@@]7(c8ccc(OC)cc8N(C)[C@H]7[C@@]4(O)C(=O)OC)[C@@H]65)CC1)[C@@H]32 |  |  | 1.6 | 3.49 | 0.436 | 1.91 | 1.88 | 3.59 | 1.39 | 3.38 | 324 | 1.2 | 1.44 | 2.97 | 0.635 | 1.99 | 1.2 | 2.61 | 1.66 | 3.26
11 | C/C(=C\c1csc(C)n1)[C@@H]1C[C@@H]2O[C@]2(C)CCC[C@H](C)[C@H](O)[C@@H](C)C(=O)C(C)(C)[C@@H](O)CC(=O)N1 | < 0.01 | < 1e-05 | 0.000104 | 0.000215 | 0.0137 | 0.0434 | < 1e-05 | < 1e-05 | 8.61e-05 | 0.000226 | 0.0823 | 0.000537 | 0.000337 | 0.000626 |  |  | 0.000152 | 0.000344 | 0.000121 | 0.000243
12 | COc1ccc(-n2c(=O)c3ccccc3n(Cc3ccc(C(=O)NO)cc3)c2=O)cc1 | 2100 | 5.33 | 1.09 | 3.25 | 6.39 | 23.9 | 2.31 | 7.13 | 2.67 | 24.2 | 2970 | 22.6 | 1.92 | 4.31 |  |  | 3.22 | 16.2 | 1.81 | 3.58
13 | O=S(=O)(O)C(c1ccccc1)C(O)c1ccccc1 (stereo not given) |  | > 100 |  | > 100 |  | > 100 |  | > 100 |  | > 100 |  | > 100 |  | > 100 |  | > 100 |  | > 100 |  | 
14 | C#CCCCCCC(=O)N[C@H]1C=C[C@@H]2/C=C(C)/C=C/[C@@H](C)[C@H]([C@H](C)[C@H](O)[C@@H](C)NC(C)=O)OC(=O)/C=C/C=C(C)\C=C\[C@]2(C)C1 | < 4 | 0.0159 | 0.0046 | 0.0383 |  |  | 4.87 | > 40 | 0.00422 | > 40 | < 4 | 25.1 | 0.0213 | > 40 | 0.00681 | > 40 | 0.00804 | > 40 | 6.16 | > 40
